Experimental data published in patent publication US6737383B1, “Herbicidal oxadiazolidines” (priority 1999, dated 2004).

How the values were obtained:
bedstraw = assay: Test B pre/postemergence bedstraw; format: in vivo, Galium aparine
Procedure, shortened: (§1)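 Test chemicals in a non-phytotoxic solvent mixture with surfactant were sprayed preemergence onto planted seeds and postemergence onto plants 2 to 18 cm tall (1- to 4-leaf stage). After twelve to sixteen days in a greenhouse, injury was visually rated against untreated controls from 0 (no effect) to 10 (complete control).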

blackgrass = assay: Test B pre/postemergence blackgrass; format: in vivo, Alopecurus myosuroides
Procedure, shortened: as §1

surinam grass = assay: Test B pre/postemergence surinam grass; format: in vivo, Brachiaria decumbens
Procedure, shortened: as §1

cocklebur = assay: Test B pre/postemergence cocklebur; format: in vivo, Xanthium strumarium
Procedure, shortened: as §1

corn = assay: Test B pre/postemergence corn; format: in vivo, Zea mays
Procedure, shortened: as §1

crabgrass = assay: Test B pre/postemergence crabgrass; format: in vivo, Digitaria sanguinalis
Procedure, shortened: as §1

giant foxtail = assay: Test B pre/postemergence giant foxtail; format: in vivo, Setaria faberii
Procedure, shortened: as §1

morningglory = assay: Test B pre/postemergence morningglory; format: in vivo, Ipomoea hederacea
Procedure, shortened: as §1

pigweed = assay: Test B pre/postemergence pigweed; format: in vivo, Amaranthus retroflexus
Procedure, shortened: as §1

rape = assay: Test B pre/postemergence rape; format: in vivo, Brassica napus
Procedure, shortened: as §1

soybean = assay: Test B pre/postemergence soybean; format: in vivo, Glycine max
Procedure, shortened: as §1

sugar beet = assay: Test B pre/postemergence sugar beet; format: in vivo, Beta vulgaris
Procedure, shortened: as §1

velvetleaf = assay: Test B pre/postemergence velvetleaf; format: in vivo, Abutilon theophrasti
Procedure, shortened: as §1

wheat = assay: Test B pre/postemergence wheat; format: in vivo, Triticum aestivum
Procedure, shortened: as §1

wild oat = assay: Test B pre/postemergence wild oat; format: in vivo, Avena fatua
Procedure, shortened: as §1

purple nutsedge = assay: Test B pre/postemergence purple nutsedge; format: in vivo, Cyperus rotundus
Procedure, shortened: as §1

[1] = Postemergence, Rate 31 g/ha, visual rating, scale 0 to 10 (0 no effect, 10 complete control)
[2] = Postemergence, Rate 125 g/ha, scale 0 to 10, 0 is no effect, 10 is complete control
[3] = Postemergence, Rate 250 g/ha, scale 0 to 10, 0 is no effect, 10 is complete control
[4] = Preemergence, Rate 31 g/ha, visual rating, scale 0 to 10 (0 no effect, 10 complete control)
[5] = Preemergence, Rate 62 g/ha, scale 0 to 10 (0 no effect, 10 complete control)
[6] = Preemergence, Rate 250 g/ha, scale of 0 to 10 where 0 is no effect and 10 is complete control
[7] = Rate 62 g/ha, Postemergence, scale of 0 to 10 where 0 is no effect and 10 is complete control

In the case of `CC(C)N(C(=O)n1oc(=O)n(C2(C)CC2)c1=O)c1ccc(F)cc1` [Compound 362], the “Bedstraw plant response rating” value (bedstraw; [1]) is reported as 5, the “Plant response rating, Bedstraw” value (bedstraw; [2]) is reported as 9 and the “Plant response rating, Bedstraw” value (bedstraw; [3]) is reported as 9. The “Bedstraw plant response rating” value (bedstraw; [4]) was 8, the “Plant response rating, Bedstraw” value (bedstraw; [5]) was 9 and the “Bedstraw plant response rating (0 to 10 scale)” value (bedstraw; Preemergence, Rate 125 g/ha) was 9. For the same compound, the “Bedstraw plant response rating” value (bedstraw; [6]) was 10, the “Bedstraw plant response rating” value (bedstraw; [7]) was 5 and the “Blackgrass plant response rating” value (blackgrass; [1]) was 8. For the same compound, the “Plant response rating, Blackgrass” value (blackgrass; [2]) was 8, the “Plant response rating, Blackgrass” value (blackgrass; [3]) was 8 and the “Blackgrass plant response rating” value (blackgrass; [4]) was 8. The “Plant response rating, Blackgrass” value (blackgrass; [5]) was 9, the “Blackgrass plant response rating (0 to 10 scale)” value (blackgrass; Preemergence, Rate 125 g/ha) was 10 and the “Blackgrass plant response rating” value (blackgrass; [6]) was 10. The “Blackgrass plant response rating” value (blackgrass; [7]) was 8, the “B. signalgrass plant response rating” value (surinam grass; [1]) was 1 and the “Plant response rating, B. signalgrass” value (surinam grass; [2]) was 5. The “Plant response rating, B. signalgrass” value (surinam grass; [3]) was 7, the “B. signalgrass plant response rating” value (surinam grass; [4]) was 2 and the “Plant response rating, B. signalgrass” value (surinam grass; [5]) was 4. For the same compound, the “B. signalgrass plant response rating (0 to 10 scale, 0 is no effect, 10 is complete control)” value (surinam grass; Preemergence, Rate 125 g/ha) was 6, the “B. signalgrass plant response rating” value (surinam grass; [6]) was 7 and the “B. signalgrass plant response rating” value (surinam grass; [7]) was 2. For the same compound, the “Cocklebur plant response rating” value (cocklebur; [1]) was 0, the “Plant response rating, Cocklebur” value (cocklebur; [2]) was 0 and the “Cocklebur plant response rating” value (cocklebur; [4]) was 0. The “Plant response rating, Cocklebur” value (cocklebur; [5]) was 0, the “Cocklebur plant response rating (0 to 10 scale)” value (cocklebur; Preemergence, Rate 125 g/ha) was 0 and the “Cocklebur plant response rating” value (cocklebur; [6]) was 0. The “Cocklebur plant response rating” value (cocklebur; [7]) was 0, the “Corn plant response rating” value (corn; [1]) was 0 and the “Plant response rating, Corn” value (corn; [2]) was 0. The “Plant response rating, Corn” value (corn; [3]) was 0, the “Corn plant response rating” value (corn; [4]) was 0 and the “Plant response rating, Corn” value (corn; [5]) was 0. The “Corn plant response rating (0 to 10 scale)” value (corn; Preemergence, Rate 125 g/ha) was 3, the “Corn plant response rating” value (corn; [6]) was 9 and the “Corn plant response rating” value (corn; [7]) was 0. For the same compound, the “Crabgrass plant response rating” value (crabgrass; [1]) was 3, the “Plant response rating, Crabgrass” value (crabgrass; [2]) was 6 and the “Plant response rating, Crabgrass” value (crabgrass; [3]) was 6. The “Plant response rating, Crabgrass” value (crabgrass; [5]) was 5, the “Crabgrass plant response rating (0 to 10 scale)” value (crabgrass; Preemergence, Rate 125 g/ha) was 8 and the “Crabgrass plant response rating” value (crabgrass; [6]) was 8. The “Crabgrass plant response rating” value (crabgrass; [7]) was 3, the “Giant foxtail plant response rating” value (giant foxtail; [1]) was 5 and the “Plant response rating, Giant foxtail” value (giant foxtail; [2]) was 8. For the same compound, the “Plant response rating, Giant foxtail” value (giant foxtail; [3]) was 9, the “Plant response rating, Giant foxtail” value (giant foxtail; [5]) was 10 and the “Giant foxtail plant response rating (0 to 10 scale)” value (giant foxtail; Preemergence, Rate 125 g/ha) was 10. For the same compound, the “Giant foxtail plant response rating” value (giant foxtail; [6]) was 10, the “Giant foxtail plant response rating” value (giant foxtail; [7]) was 6 and the “Morningglory plant response rating” value (morningglory; [1]) was 0. The “Plant response rating, Morningglory” value (morningglory; [2]) was 1, the “Plant response rating, Morningglory” value (morningglory; [3]) was 1 and the “Plant response rating, Morningglory” value (morningglory; [5]) was 0. For the same compound, the “Morningglory plant response rating (0 to 10 scale)” value (morningglory; Preemergence, Rate 125 g/ha) was 4, the “Morningglory plant response rating” value (morningglory; [6]) was 6 and the “Morningglory plant response rating” value (morningglory; [7]) was 1. The “Redroot pigweed plant response rating” value (pigweed; [1]) was 0, the “Plant response rating, Redroot pigweed” value (pigweed; [2]) was 4 and the “Plant response rating, Redroot pigweed” value (pigweed; [3]) was 6. For the same compound, the “Plant response rating, Redroot pigweed” value (pigweed; [5]) was 8, the “Redroot pigweed plant response rating (0 to 10 scale)” value (pigweed; Preemergence, Rate 125 g/ha) was 10 and the “Redroot pigweed plant response rating” value (pigweed; [6]) was 10. The “Redroot pigweed plant response rating” value (pigweed; [7]) was 2, the “Rape plant response rating” value (rape; [1]) was 0 and the “Plant response rating, Rape” value (rape; [2]) was 0. The “Plant response rating, Rape” value (rape; [3]) was 0, the “Plant response rating, Rape” value (rape; [5]) was 0 and the “Rape plant response rating (0 to 10 scale)” value (rape; Preemergence, Rate 125 g/ha) was 3. For the same compound, the “Rape plant response rating” value (rape; [6]) was 6, the “Rape plant response rating” value (rape; [7]) was 0 and the “Soybean plant response rating” value (soybean; [1]) was 4. The “Plant response rating, Soybean” value (soybean; [2]) was 5, the “Plant response rating, Soybean” value (soybean; [3]) was 6 and the “Plant response rating, Soybean” value (soybean; [5]) was 0. For the same compound, the “Soybean plant response rating (0 to 10 scale)” value (soybean; Preemergence, Rate 125 g/ha) was 1, the “Soybean plant response rating” value (soybean; [6]) was 6 and the “Soybean plant response rating” value (soybean; [7]) was 4. The “Sugarbeets plant response rating” value (sugar beet; [1]) was 0, the “Plant response rating, Sugarbeets” value (sugar beet; [2]) was 0 and the “Plant response rating, Sugarbeets” value (sugar beet; [3]) was 2. The “Plant response rating, Sugarbeets” value (sugar beet; [5]) was 5, the “Sugarbeets plant response rating (0 to 10 scale)” value (sugar beet; Preemergence, Rate 125 g/ha) was 7 and the “Sugarbeets plant response rating” value (sugar beet; [6]) was 8. For the same compound, the “Sugarbeets plant response rating” value (sugar beet; [7]) was 0, the “Velvetleaf plant response rating” value (velvetleaf; [1]) was 0 and the “Plant response rating, Velvetleaf” value (velvetleaf; [2]) was 4. The “Plant response rating, Velvetleaf” value (velvetleaf; [3]) was 7, the “Plant response rating, Velvetleaf” value (velvetleaf; [5]) was 4 and the “Velvetleaf plant response rating (0 to 10 scale)” value (velvetleaf; Preemergence, Rate 125 g/ha) was 6. The “Velvetleaf plant response rating” value (velvetleaf; [6]) was 6, the “Velvetleaf plant response rating” value (velvetleaf; [7]) was 1 and the “Wheat plant response rating” value (wheat; [1]) was 0. The “Plant response rating, Wheat” value (wheat; [2]) was 4, the “Plant response rating, Wheat” value (wheat; [3]) was 6 and the “Plant response rating, Wheat” value (wheat; [5]) was 7. For the same compound, the “Wheat plant response rating (0 to 10 scale)” value (wheat; Preemergence, Rate 125 g/ha) was 8, the “Wheat plant response rating” value (wheat; [6]) was 8 and the “Wheat plant response rating” value (wheat; [7]) was 2. For the same compound, the “Wild oats plant response rating” value (wild oat; [1]) was 0, the “Plant response rating, Wild oats” value (wild oat; [2]) was 6 and the “Plant response rating, Wild oats” value (wild oat; [3]) was 6. The “Plant response rating, Wild oats” value (wild oat; [5]) was 7, the “Wild oats plant response rating (0 to 10 scale)” value (wild oat; Preemergence, Rate 125 g/ha) was 10 and the “Wild oats plant response rating” value (wild oat; [6]) was 10. For the same compound, the “Wild oats plant response rating” value (wild oat; [7]) was 3, the “Nutsedge plant response rating” value (purple nutsedge; [1]) was 0 and the “Plant response rating, Nutsedge” value (purple nutsedge; [2]) was 0. The “Plant response rating, Nutsedge” value (purple nutsedge; [3]) was 0, the “Plant response rating, Nutsedge” value (purple nutsedge; [5]) was 0 and the “Nutsedge plant response rating (0 to 10 scale)” value (purple nutsedge; Preemergence, Rate 125 g/ha) was 0. The “Nutsedge plant response rating” value (purple nutsedge; [6]) was 3 and the “Nutsedge plant response rating” value (purple nutsedge; [7]) was 0.
